Literature values as cited in US8338072B2, “Resist composition, resist pattern forming process, and method for manufacturing semiconductor device” (Fujitsu Limited, priority 2006, dated 2012).

Details: Table 1, additives 4A to 4F

Row | Compound | pKa
1 | CCCCCN [Example 4F, Pentylamine] | 10.93
2 | CC(O)C(=O)O (stereo not shown) [Example 4B, Lactic acid] | 4.57
3 | CCCCCCN [Example 4E, Hexylamine] | 10.85
4 | NCCN [Example 4D, Ethylenediamine] | 7.12

Same assay, conditions: values for example additives

Row | Compound | pKa
5 | NC1CCCCC1 [cyclohexylamine] | 10.62
6 | methylpyridine | 5.80-6.10
7 | NC1CCCC1 [cyclopentylamine] | 10.56
8 | O=C(O)CCC(=O)O [succinic acid] | 3.99
9 | CCCCCN [Example 4F, Pentylamine] | 10.93
10 | CCCC(=O)O [butyric acid] | 4.57
11 | NCc1ccccc1O [2-hydroxybenzylamine] | 8.63
12 | CCCN [propylamine] | 10.93
13 | c1ccc(Nc2ccccc2)cc1 [diphenylamine] | 13.65
14 | O=C(O)/C=C/C(=O)O [fumaric acid] | 3.07
15 | CCCCC(=O)O [valeric acid] | 5.17
16 | NCCN [Example 4D, Ethylenediamine] | 7.12
